Patent US20250280826A1, “PLANT GROWTH PROMOTER” (KAO CORPORATION, priority 2022, published 2025)

Columns and labels:
Type in all cases: in vivo
soybean [1] = test: Example 4: soybean yield-enhancing effect in field (dry grain mass); settings: ascorbic acid 1,500 ppm, one foliar spray, 6.7 mL per plant, day 75 after sowing
Method: The influence of foliar spray of a composition containing 1 500 ppm ascorbic acid on soybean yield was evaluated. Foliar spray was carried out only once, and types of test plots were examined (Table 5). The cultivation of soybean was carried out in a field in Tochigi Prefecture, and the soybean cultivar used was “Sato no Hohoemi.” Of the field, a ridge with a width of 2 m excluding the perimeter was used as one plot, and foliar spray treatment was carried out. 3 plot tests were carried out per test plot. An average of 10 plants were cultivated in the range of 2 m, which was set as one plot. In addition to the reagents mentioned in Example 2, polyoxyethylene lauryl ether was used as a nonionic surfactant. Further, the urea, potassium dihydrogen phosphate, sodium sulfite, glutathione, and EDTA used were those manufactured by FUJIFILM Wako Pure Chemical Corporation. The reagents were dissolved in tap water or deionized water to prepare spraying solutions. By using a battery-driven atomizer (GT-5HS, Koshin Ltd.), 6.7 mL of the ascorbic acid aqueous solution per plant was sprayed over the entire soybean plant body. […] The dry grain mass was measured as yield data. After calculating the average grain weight of each plant in one plot, the mean and the standard deviation for the eight plots were calculated (FIG. 9).

soybean [2] = test: Example 3: soybean nodule activity, mixing ratio of ascorbic acid and antioxidant; settings: ascorbic acid dissolved in tap water, in comparison to no application
Method: (§1) The items of the preparation of soil and sowing, the inoculation of Rhizobium, the exudate collection method for measuring the amount of ureide nitrogen, which serves as an indicator of nodule activity, the experimental operation before quantification of exudate, the equipment and measurement method used for quantification of the amount of ureide nitrogen, and the standard products used and quantification were the same as those in Example 2, and the cultivation of soybean was carried out for 21 days.
The cultivation was carried out in an artificial weather apparatus (LPH-411SP, Nippon Medical & Chemical Instruments Co., Ltd.), with the light condition of a light period (light intensity from […]) of 16 hours/a dark period of 8 hours, the temperature of 30° C. for the light period/25° C. for the dark period, and a humidity of 50%. On day 7 after sowing, the plants were thinned so as to be one plant per pot. Watering was carried out by adding water to a vat placed under the pot so that about 5 cm of the lower part of the pot would be submerged after the vat had run out of water.
The spraying solutions shown in Table 4 below were prepared in the same manner as in Example 2, and 6.7 mL of each was sprayed per plant using a mister an day 14 after sowing. Foliar spray was carried out only once, and 7 types of test plots were examined (Table 4). […]

soybean [3] = test: Example 5: soybean nodule activity after application of high concentration of ascorbic acid; settings: ascorbic acid dissolved in deionized water in comparison to tap water, regardless of amount of water
Description: as §1, with “Rhizobium, the cultivation conditions, the exudate collection” for “Rhizobium, the exudate collection”, “of ureide nitrogen as an” for “of ureide nitrogen, which serves as an”, “in Example 3, and the” for “in Example 2, and the”
Foliar spray treatment was carried out on day 14 after sowing. In addition to the reagents mentioned in Examples 2, 3, and 4, polyethylene glycol monolaurate and a glycerol fatty acid ester were used as nonionic surfactants. The reagents were dissolved in tap water or deionized water to prepare spraying solutions. Foliar spray was carried out only once. Assuming aerial spraying, 8 types of test plots containing a high concentration of ascorbic acid were examined (Table 6). In the test plots 2 and 3, 6.7 mL of each per plant was sprayed using a mister, and in the test plots 4 to 8, 0.125 mL of each per plant was sprayed.
The mean and the standard deviation were calculated from the data of four repeats, excluding the highest and the lowest values from the six repeats in each test plot.

azuki bean = test: Example 6: initial growth index in azuki bean (above-/below-ground part dry weight); settings: ascorbic acid 1 500 mass ppm, tap water vs deionized water
Method: Medium-term fertilizer effect type culture soil (Takii hydrous cell medium-term fertilizer effect type, Takii & Co., Ltd.) and vermiculite grains (Akagi-Engei Co., Ltd.) were mixed at a volume ratio of 1:1, and the soil was placed in a polypot (diameter: 10.5 cm, height: 9 cm). The azuki bean seeds used were “Tamba Dainagon Azuki Beans” (purchased from Takii & Co., Ltd.). After tap water was supplied in an amount of 250 mL per pot, 2 seeds per pot were each sown at a depth of from about 1 to 2 cm from the soil surface. The number of repeats in each test plot was 6 (n=6). […]
Spraying solutions were prepared, and 6.7 mL of each per plant was sprayed only once using a mister on day 21 after sowing. […] The evaluated test plots 1 to 4 are as follows.
On day 28 after sowing, the plant body was dried at 90° C. for 24 hours, and the above-ground part dry weight and below-ground part dry weight of the plant body were then measured. • 1 plot: control (no application) • 2 plot: foliar spray of 1 500 mass ppm ascorbic acid (dissolved in tap water) • 3 plot: foliar spray of 1 500 mass ppm ascorbic acid (dissolved in deionized water) • 4 plot: foliar spray of 1 500 mass ppm ascorbic acid+1 mass ppm BHT+50 mass ppm isobutyl alcohol+350 mass ppm sorbitan monolaurate (dissolved in tap water)

Q: How did the “effects of tap water and deionized water on seed weight” value (soybean [1]) turn out when O=C1O[C@H]([C@@H](O)CO)C(O)=C1O [ascorbic acid, (R)-3,4-dihydroxy-5-((S)-1,2-dihydroxyethyl)furan-2(5H)-one] was run?
A: different from each other

Q: And the “nodule activity (allantoin and allantoic acid in exudate)” value (soybean [2])?
A: did not change or rather decreased

Q: And the “nodule activity (allantoic acid in exudate)” value (soybean [3])?
A: increased

Q: What about the “effects on the initial growth index” value (azuki bean) of the same compound?
A: varied in accordance with the water quality
